This note sets out measurements from patent US4386103A, “Dichloroamino acid derivatives useful as potent germicidal and fungicidal agents” (Merck & Co., Inc., priority 1981, dated 1983).

Format in all cases: cell-based
For experiment [1], the system named is Trychophyton mentagrophytes. Put plainly: Contact fungicidal screen, Trychophyton mentagrophytes. As to conditions: 0.1M NaOAc pH 4.6.
The next experiment relates to Bacillus subtilis. As to the kind of experiment: Contact germicidal screen, Bacillus subtilis ATCC No. 60511. As for the experimental part:
The organisms used in the contact germicidal screen are all maintained as stock cultures on nutrient agar […] 4° C. They are transferred and biochemically diagnosed monthly. The five organisms used are: The media used are: […] Overnight cultures of the test organisms are grown in tryptose phosphate broth. After 15-16 hours, the cultures are centrifuged at […] for 15 minutes, and the supernatant replaced with fresh warm (37° C.) media. After two hours of incubation, the absorbance of the culture at 650 nm is determined and diluted with nutrient broth to 1×10^7 colony forming units per ml (using a previous determined standard curve: colony forming units/ml vs. absorbance at 650). The diluted cultures are maintained at 4°-8° C. throughout the screen. The compounds are weighed into sterile 100 ml volumetric flasks, and immediately before screening dissolved in one of the following buffers: 0.1 M NaOAc pH 4.6 or 0.1 M NaH2 PO4 pH 7.0. If solubility poses a problem, 10-30% methanol is used to effect solution. Two denaturing agents are also tested: […] Horse Serum restored with 100 ml distilled water and 10% Trition×100. When used, 2.5 ml of the denaturing agent is mixed with 2.5 ml of double strength test solution thirty minutes before the bacterial suspension is added. The screen is initiated when 0.2 ml of the bacterial suspension is added to 5.0 ml of the test solution contained in a sterile 25 ml glass stoppered flask. At intervals of 0.5, 2.5, 5.0, 10.0 and 15.0 minutes, a loopful of the inoculated test solution is subcultured into 5 ml of sterile nutrient broth and mixed with a vortex, the high dilution serving to stop the action of the compound. All of the subculture tubes are incubated at 37° C. and checked for signs of growth by turbidity at 1, 3, 5 and 7 days. The earliest subculture time at which no growth is present is considered the endpoint and is recorded as the sterilization time. An aliquot of 0.2 ml of the diluted culture is transferred to 5 ml of buffer to simulate 0.2 ml in 5 ml of test solution. (a) Purity: A loopful of the inoculated buffer is streaked onto nutrient agar to check colony morphology and lack of contaminants. (b) Viability: A loopful of the inoculated buffer is subcultured to 5 ml of nutrient broth as in the screen and incubated at 37° C. for 24 hours. (c) Dilution of the Test Solution: A loopful of the test solution is transferred to a 5 ml tube of nutrient broth, and a loopful of the inoculated buffer is transferred to the same tube of broth. […] (d) Purity of Organisms in the Test Solution: After the 15 minute subculture, a loopful of the inoculated test solution is streaked onto nutrient agar to insure that contamination has not occurred during the screen. (e) lack of Bactericidal Activity of Buffers and Other Solvents: Before a buffer or other solvent is used as a diluent, it is screened against the five organisms to insure that the buffer or solvent has no antibacterial activity itself.

For a further experiment, the system named is Candida albican. As to the kind of experiment: Contact fungicidal screen, Candida albican. As to conditions: 0.1M NaOAc pH 4.6. As for the experimental part:
The organisms used in the Contact Fungicidal Screen are a dermatophyte, trychophyton mentagrophytes, frequently associated with athlete's foot; a yeast, Candida albican, causative agent of thrush and vaginitis; a phycomycete, Rhizopus oryzae, commonly known as black bread mold; an ascomycete, Aspergillus fumagatis, found in chicken droppings and causing lung infections; and another dermatophyte, Microsporum canis, which causes ringworm. These organisms are maintained as stock cultures at 4° C. on agar slants of the following composition: dextrose 2%, Neopeptone (Difco) 1%, agar 2%. Fluid medium of the same nutrient composition (without agar) was used to test the viability of the organisms after exposure to the fungicide. This medium is also known as Sabouraud's medium.
The Candida albican is grown in Sabouraud's liquid medium at 25°-30° C. for three days. At the end of the incubation period the cell suspension is centrifuged at 200 G and washed with sterile physiological saline (0.85% NaCl). The density of the cell suspension is determined by counting in a hemacytometer. The suspension is stored a 4° C. until it is used, at which time it is diluted with sterile physiological saline to a density of 5×10^6 cells per ml.
The compounds are weighed into heat sterilized 100 ml volumetric flasks and immediately before screening dissolved in 0.1 M NaOAc pH 4.6 buffer (test solutions).
The Aspergillus, Candida, Microsporum and Rhizopus species are screened in a slightly different manner. Basically, the procedure for the Contact Germicidal Efficiency Screen is utilized. After the test solutions are made up, 5 ml aliquots are pipetted into heat sterilized 25 ml glass stoppered erlenmeyer flasks. The screen is initiated when 0.5 ml of the 5×10^6 cell (spore) per ml suspension is added to the flask containing 5 ml of the test solution. At intervals of 0.5, 2.5, 5.0, 10.0 and 15.0 minutes, a 4 mm loopful of the inoculated test solution is subcultured into 7 mL of sterile fluid Sabouraud's medium and mixed on a vortex, the high dilution serving to stop the action of the compound. The subculture tubes are incubated at 25°-30° C. for ten days with daily observation for mycelial growth. The earliest subculture time at which no growth is present is considered the endpoint and is recorded as the sterilization time.
To insure the viability of the culture, a 0.5 ml aliquot of the 5×10^6 cells (spores) per ml suspension is transferred to 5 ml of the pH 4.6 buffer. A loopful of the inoculated buffer is then subcultured to 7 ml of fluid Sabouraud's medium and incubated at 25°-30° C. for ten days. To insure that the dilution of the test solution into the subculture medium does stop the action, a loopful of the test solution and a loopful of the inoculated buffer are transferred into the same subculture tube. This tube is also incubated at 25°-30° C. for ten days.

As to `CC(C)(COC(=O)CCCC(=O)O)N(Cl)Cl` [(V), 2-dichloramino-2-methylpropyl-hemiglutarate], the “Sterilization Time” value stood at 5.0 min in experiment [1] (10 PPM); 2.5 min in experiment [1] (100 PPM); 0.5 min in experiment [1] (1000 PPM); 2.5 min with Bacillus subtilis (10.0+ PPM, 0.1M NaOAc pH 4.6, screened simultaneously with four other compounds); 15 min in the experiment with Bacillus subtilis (10.0 PPM, 0.1M NaH2PO4 pH 7.0); 5.0 min in the experiment on Bacillus subtilis (10.0 PPM, 0.1M NaOAc pH 4.6). The “Sterilization Time” value in the experiment with Bacillus subtilis (99.1 PPM, 0.1M NaOAc pH 4.6) was 2.5 min; in the experiment with Bacillus subtilis (106.7 PPM, 0.1M NaH2PO4 pH 7.0), 10.0 min; in the experiment with Bacillus subtilis (291.4 PPM, Triton X100 (10% solution):pH 4.6 buffer 1:1) it was 0.5 min; in the experiment on Bacillus subtilis (291.4 PPM, horse serum:pH 4.6 buffer 1:1), 5.0 min; in the experiment with Bacillus subtilis (911.8 PPM, 0.1M NaOAc pH 4.6), 0.5 min; with Bacillus subtilis (1024.4 PPM, 0.1M NaH2PO4 pH 7.0), 2.5 min. Besides, the “Sterilization Time” value is 0.5 min with Bacillus subtilis (1042.0 PPM, horse serum:pH 4.6 buffer 1:1); 15 min in the experiment on Candida albican (10 PPM); 15 min with Candida albican (100 PPM); 0.5 min with Candida albican (1000 PPM). Moreover, the “Sterilization Time (summary)” value was 2.5 min in the experiment with Bacillus subtilis (10 PPM, 0.1M NaOAc pH 4.6); 2.5 min with Bacillus subtilis (100 PPM, 0.1M NaOAc pH 4.6); 5.0 min in the experiment on Bacillus subtilis (300 PPM with 50% Horse Serum, 0.1M NaOAc pH 4.6); 0.5 min in the experiment with Bacillus subtilis (300 PPM with 50% Triton X100, 0.1M NaOAc pH 4.6); 0.5 min with Bacillus subtilis (1000 PPM with 50% Horse Serum, 0.1M NaOAc pH 4.6); 0.5 min with Bacillus subtilis (1000 PPM, 0.1M NaOAc pH 4.6).
